Laboratory results taken from ChEMBL document CHEMBL1201862, “PubChem BioAssay data set” (2004).
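Grown in 96-well plates, cells were treated for 48 hours with each compound at five concentrations. Insufficient inhibition: endpoint recorded as highest concentration tested. GI50 marks 50% less growth.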 Calls of active or inactive are those of the source. No stated cut-off is given here; in the data, active = GI50 up to about 1.1 µM and inactive = higher. Positions of bridges follow the written chain, without caps; N, C: chain ends. Non-standard residues stand in square brackets, D forms with d. Residues, ends and D or L forms follow the SMILES beside them. Aib = CC(C)(N)C(=O)O; βAla = NCCC(=O)O

Tests used:
Test in all cases: NCI anticancer screen, dose series, 48 h
786-0 = test system: 786-0
ACHN = test system: ACHN
CAKI-1 = test system: CAKI-1
COLO 205 = test system: COLO 205
EKVX = test system: EKVX
K562 = test system: K562
Malme-3M = test system: Malme-3M
NCI-H226 = test system: NCI-H226
NCI-H23 = test system: NCI-H23
NCI-H522 = test system: NCI-H522
OVCAR-3 = test system: OVCAR-3
SK-MEL-5 = test system: SK-MEL-5
SNB-75 = test system: SNB-75
TK-10 = test system: TK-10
UACC-62 = test system: UACC-62
UO-31 = test system: UO-31
HL-60 = test system: HL-60

Measured: GI50

COc1ccc2c(c1)C1Oc3ccccc3CC1(O)CO2 (centres undefined)
inactive: 786-0 > 100 µM | ACHN > 100 µM | CAKI-1 > 100 µM | COLO 205 > 100 µM | EKVX > 100 µM | K562 > 100 µM | Malme-3M > 100 µM | NCI-H226 > 100 µM | NCI-H23 > 100 µM | NCI-H522 > 100 µM | OVCAR-3 > 100 µM | SK-MEL-5 > 100 µM | SNB-75 > 100 µM | TK-10 > 100 µM | UACC-62 > 100 µM | UO-31 > 100 µM

CCCCC/C(C=O)=C\c1ccccc1
inactive: 786-0 > 100 µM | ACHN > 100 µM | CAKI-1 > 100 µM | COLO 205 > 100 µM | EKVX > 100 µM | HL-60 > 100 µM | K562 20.3 µM | NCI-H226 > 100 µM | NCI-H23 > 100 µM | SK-MEL-5 > 100 µM | SNB-75 > 100 µM | TK-10 > 100 µM | UACC-62 > 100 µM | UO-31 > 100 µM

CS/C(=N\S(=O)(=O)c1ccc(Cl)cc1)NCCCCN/C(=N/S(=O)(=O)c1ccc(Cl)cc1)SC
inactive: 786-0 44.5 µM | ACHN > 100 µM | CAKI-1 > 100 µM | COLO 205 > 100 µM | EKVX > 100 µM | HL-60 > 100 µM | K562 > 100 µM | Malme-3M > 100 µM | OVCAR-3 > 100 µM | SNB-75 > 10 µM | TK-10 > 100 µM | UACC-62 > 100 µM | UO-31 > 100 µM

O=c1[nH]c2cc(C(F)(F)F)ccc2nc1Cc1ccccc1
inactive: 786-0 36.6 µM | ACHN 52.6 µM | CAKI-1 60.4 µM | COLO 205 > 100 µM | EKVX > 100 µM | HL-60 > 100 µM | K562 62.2 µM | NCI-H226 > 100 µM | NCI-H23 23.4 µM | SK-MEL-5 > 100 µM | SNB-75 41.6 µM | TK-10 > 100 µM | UACC-62 > 100 µM | UO-31 78.3 µM

CC(C)(C)C1CCC2c3c([nH]c4ccccc34)C3C(=O)N(c4ccccc4[N+](=O)[O-])C(=O)C3C2C1 (centres undefined)
inactive: 786-0 12.7 µM | ACHN 9.1 µM | CAKI-1 5.66 µM | COLO 205 10.5 µM | EKVX 11.4 µM | HL-60 11.7 µM | K562 11.9 µM | Malme-3M 16.4 µM | NCI-H226 20.2 µM | NCI-H23 8.34 µM | OVCAR-3 13 µM | SK-MEL-5 13.5 µM | TK-10 17.7 µM | UACC-62 12.2 µM | UO-31 20.4 µM

Cc1ccc(S(=O)(=O)N2CCSCCSCCSCCN(S(=O)(=O)c3ccc(C)cc3)CC2)cc1
inactive: 786-0 > 100 µM | ACHN > 100 µM | COLO 205 > 100 µM | EKVX > 100 µM | HL-60 > 100 µM | K562 > 100 µM | NCI-H226 > 100 µM | NCI-H23 > 100 µM | OVCAR-3 > 100 µM | SK-MEL-5 > 100 µM | SNB-75 61 µM | TK-10 > 100 µM | UACC-62 > 100 µM | UO-31 > 100 µM

CC1(C)NC(=O)C(NC(=O)C(N)CC(=O)O)CCCCNC(=O)CCNC1=O (centres undefined) (H-DK[Aib][βAla]; lactam 2-C; configuration not given here)
inactive: 786-0 > 100 µM | ACHN > 100 µM | CAKI-1 > 100 µM | COLO 205 > 100 µM | EKVX > 100 µM | K562 > 100 µM | Malme-3M > 100 µM | NCI-H226 > 100 µM | NCI-H23 > 100 µM | NCI-H522 > 100 µM | OVCAR-3 > 100 µM | SK-MEL-5 > 100 µM | SNB-75 > 100 µM | TK-10 > 100 µM | UACC-62 > 100 µM | UO-31 > 100 µM

C[N+]1(C)C(c2ccccc2)C(=O)O[B@-]1(F)c1ccccc1 (some centres undefined)
inactive: 786-0 > 100 µM | ACHN > 100 µM | COLO 205 > 100 µM | EKVX > 100 µM | HL-60 > 100 µM | K562 > 100 µM | Malme-3M > 100 µM | NCI-H226 > 100 µM | NCI-H23 > 100 µM | OVCAR-3 > 100 µM | SK-MEL-5 > 100 µM | SNB-75 60.3 µM | TK-10 > 100 µM | UACC-62 > 100 µM | UO-31 > 100 µM

CCOP(=O)(Nc1ccc(-c2ccccc2)cc1)OCC
inactive: 786-0 > 100 µM | ACHN > 100 µM | CAKI-1 > 100 µM | COLO 205 > 100 µM | EKVX 65 µM | K562 74.1 µM | Malme-3M > 100 µM | NCI-H23 > 100 µM | NCI-H522 33.8 µM | OVCAR-3 49.9 µM | SK-MEL-5 90.2 µM | SNB-75 74.3 µM | TK-10 > 100 µM | UACC-62 > 100 µM | UO-31 57.9 µM

Oc1ccc(-c2ccccc2)nn1
inactive: 786-0 > 100 µM | ACHN > 100 µM | CAKI-1 > 100 µM | EKVX > 100 µM | HL-60 > 100 µM | K562 > 100 µM | Malme-3M > 100 µM | NCI-H23 > 100 µM | NCI-H522 > 100 µM | OVCAR-3 > 100 µM | SK-MEL-5 > 100 µM | TK-10 > 100 µM | UACC-62 > 100 µM | UO-31 > 100 µM

CC1C2(C)OCC(C#N)(C(=N)O2)C1(C#N)C#N (centres undefined)
inactive: 786-0 21.3 µM | ACHN 36.5 µM | CAKI-1 12.5 µM | COLO 205 14.7 µM | EKVX 19.1 µM | HL-60 15.6 µM | K562 32.8 µM | Malme-3M 18.5 µM | NCI-H226 67 µM | NCI-H23 29.3 µM | OVCAR-3 15.1 µM | SK-MEL-5 11.3 µM | SNB-75 96.8 µM | TK-10 37.1 µM | UACC-62 24.9 µM | UO-31 36.2 µM

COC(=O)C(=O)CC(=O)c1cccc(OC)c1
inactive: 786-0 > 100 µM | ACHN > 100 µM | CAKI-1 > 100 µM | COLO 205 > 100 µM | EKVX > 100 µM | HL-60 > 100 µM | K562 > 100 µM | Malme-3M > 100 µM | NCI-H226 > 100 µM | NCI-H23 > 100 µM | OVCAR-3 > 100 µM | SK-MEL-5 > 100 µM | SNB-75 > 100 µM | TK-10 78.3 µM | UACC-62 > 100 µM | UO-31 > 100 µM

CN(C)CC[N+](C)(C)[BH2-]C(O)O
inactive: 786-0 > 100 µM | ACHN > 100 µM | CAKI-1 > 100 µM | COLO 205 > 100 µM | EKVX > 100 µM | HL-60 > 100 µM | K562 > 100 µM | NCI-H23 > 100 µM | NCI-H522 > 100 µM | OVCAR-3 > 100 µM | SK-MEL-5 > 100 µM | SNB-75 > 100 µM | TK-10 > 100 µM | UACC-62 > 100 µM | UO-31 > 100 µM

CC(C)(C)c1c2c(c(C(C)(C)C)c3c1OCN(Cc1ccccc1)C3)OCN(Cc1ccccc1)C2
inactive: 786-0 12.9 µM | ACHN 17.8 µM | CAKI-1 33.2 µM | COLO 205 13.7 µM | EKVX 12.7 µM | K562 17.6 µM | Malme-3M 18.7 µM | NCI-H23 12.9 µM | NCI-H522 10.9 µM | OVCAR-3 14 µM | SK-MEL-5 8.87 µM | SNB-75 37.2 µM | TK-10 15 µM | UACC-62 17.7 µM | UO-31 17.2 µM

Cc1csc2nc3c(cnn3C)c(=S)n12
inactive: 786-0 > 100 µM | ACHN 44.5 µM | CAKI-1 34.3 µM | COLO 205 > 10 µM | EKVX 14.9 µM | K562 > 100 µM | Malme-3M > 100 µM | NCI-H23 > 100 µM | NCI-H522 11 µM | OVCAR-3 > 100 µM | SK-MEL-5 > 100 µM | SNB-75 28.1 µM | TK-10 80.5 µM | UACC-62 > 100 µM | UO-31 33.5 µM

COc1ccc(/N=N/c2c(C)c(C#N)c(=S)n(C3OC(COC(C)=O)C(OC(C)=O)C(OC(C)=O)C3OC(C)=O)c2-c2ccccc2)cc1 (centres undefined)
inactive: 786-0 3.12 µM | ACHN 46.9 µM | CAKI-1 9.48 µM | COLO 205 6.93 µM | HL-60 3.13 µM | K562 4.52 µM | Malme-3M 7.23 µM | NCI-H23 15.6 µM | OVCAR-3 13.9 µM | TK-10 19.2 µM | UO-31 39.8 µM

Cc1nnc(N)nc1/C=C\c1ccc(N(C)C)cc1
inactive: 786-0 > 26.7 µM | ACHN 15 µM | COLO 205 > 29.7 µM | EKVX 29.6 µM | HL-60 3.32 µM | K562 86.9 µM | Malme-3M 29.2 µM | NCI-H226 16.1 µM | NCI-H23 7.01 µM | NCI-H522 1.68 µM | SK-MEL-5 18.5 µM | SNB-75 2.67 µM | TK-10 > 37.6 µM | UACC-62 4.27 µM | UO-31 3.18 µM

Cc1ncc(CSc2ccccc2N)c(CO)c1O
inactive: 786-0 > 100 µM | ACHN > 100 µM | CAKI-1 > 100 µM | COLO 205 > 100 µM | EKVX > 100 µM | K562 > 100 µM | Malme-3M > 100 µM | NCI-H226 > 100 µM | NCI-H23 > 100 µM | NCI-H522 > 100 µM | OVCAR-3 > 100 µM | SK-MEL-5 > 100 µM | SNB-75 > 100 µM | TK-10 > 100 µM | UACC-62 65.8 µM
